We go through 39 compounds from ChEMBL document CHEMBL1201862, “PubChem BioAssay data set” (2004).

Data set [1] concerns the target FAD-linked sulfhydryl oxidase ALR (Homo sapiens, UniProt P55789). The experiment in a line: inhibitors of human ALR sulfhydryl oxidase, dose response, biochemical, H2O2 detection, luminescence, cherry-pick (AID 493248).
Data set [2] addresses Cytochrome P450 2C19 (Homo sapiens, UniProt P33261). The experiment in a line: Cytochrome panel assay with activity outcomes. Panel member name: p450-cyp2c19 Compounds with AC50 equal or less than 10 uM are considered active. In kind it is functional.
The target of data set [3] is Cytochrome P450 2D6 (Homo sapiens, UniProt P10635).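 Further: CYP2D6 member of a cytochrome P450 panel assay.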
For data set [4], the target named is T1, Cytochrome P450 1A2 (Homo sapiens, UniProt P05177).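 Further: PubChem cytochrome P450 panel assay, CYP1A2 panel member.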
T1 sequence (P05177 whole entry): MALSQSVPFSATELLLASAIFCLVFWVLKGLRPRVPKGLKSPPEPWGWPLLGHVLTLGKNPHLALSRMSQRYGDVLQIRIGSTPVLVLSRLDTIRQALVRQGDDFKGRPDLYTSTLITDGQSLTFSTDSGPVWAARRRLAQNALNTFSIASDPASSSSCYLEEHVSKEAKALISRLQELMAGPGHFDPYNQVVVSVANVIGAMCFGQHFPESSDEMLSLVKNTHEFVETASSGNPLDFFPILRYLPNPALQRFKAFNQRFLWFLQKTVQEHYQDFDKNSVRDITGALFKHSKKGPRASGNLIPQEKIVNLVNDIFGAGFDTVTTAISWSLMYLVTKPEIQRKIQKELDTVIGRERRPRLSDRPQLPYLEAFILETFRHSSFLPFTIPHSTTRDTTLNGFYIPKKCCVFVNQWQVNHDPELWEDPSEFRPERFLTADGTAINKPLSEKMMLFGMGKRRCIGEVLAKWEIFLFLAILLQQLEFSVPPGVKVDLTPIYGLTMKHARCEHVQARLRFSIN

In data set [5] the target is T2, RNA-binding protein pos-1 (Caenorhabditis elegans, UniProt G5EF15).
T2 sequence (G5EF15 whole entry): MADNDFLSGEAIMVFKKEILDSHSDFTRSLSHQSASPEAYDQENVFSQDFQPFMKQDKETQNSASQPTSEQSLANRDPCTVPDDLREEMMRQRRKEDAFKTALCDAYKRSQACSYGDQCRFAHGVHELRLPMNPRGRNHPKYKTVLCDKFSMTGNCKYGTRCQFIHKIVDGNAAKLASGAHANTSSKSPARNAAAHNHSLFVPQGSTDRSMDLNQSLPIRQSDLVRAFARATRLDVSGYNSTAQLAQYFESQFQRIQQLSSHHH
The experiment in a line: inhibitors of POS-1/mex-3 RNA binding, dose response, biochemical, fluorescence polarization (AID 1964).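 Further: purified POS-1 fused to maltose binding protein made in E. coli; potency of compounds blocking POS-1 binding to fluorescent RNA.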 On the technique in general: Fluorescence polarisation rises when a labelled molecule tumbles more slowly, as on binding a larger partner.

Data set [6] concerns the target T3, Zinc finger protein mex-5 (Caenorhabditis elegans, UniProt Q9XUB2).
T3 sequence (Q9XUB2 whole entry): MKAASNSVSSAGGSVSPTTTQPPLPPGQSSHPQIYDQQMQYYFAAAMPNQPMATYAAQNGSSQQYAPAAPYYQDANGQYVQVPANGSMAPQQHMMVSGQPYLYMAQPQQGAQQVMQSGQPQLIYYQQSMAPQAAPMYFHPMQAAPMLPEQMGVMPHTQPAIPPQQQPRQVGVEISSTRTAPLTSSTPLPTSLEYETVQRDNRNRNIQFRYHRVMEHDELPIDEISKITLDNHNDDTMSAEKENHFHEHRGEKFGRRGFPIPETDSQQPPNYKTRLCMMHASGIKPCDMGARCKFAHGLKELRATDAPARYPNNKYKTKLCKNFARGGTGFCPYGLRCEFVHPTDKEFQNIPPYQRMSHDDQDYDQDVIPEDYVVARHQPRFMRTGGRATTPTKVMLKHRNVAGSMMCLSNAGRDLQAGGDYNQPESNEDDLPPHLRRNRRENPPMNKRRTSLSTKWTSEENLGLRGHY
As to the kind of experiment: MEX-5/TCR-2 RNA interaction inhibitors, dose response, biochemical, C. elegans, fluorescence polarization (AID 1960).

For data set [7], the target named is T4, Corticotropin-releasing factor receptor 2/Corticotropin-releasing factor-binding protein (Homo sapiens, UniProt P24387+Q13324).
T4 sequence (Q13324 whole entry): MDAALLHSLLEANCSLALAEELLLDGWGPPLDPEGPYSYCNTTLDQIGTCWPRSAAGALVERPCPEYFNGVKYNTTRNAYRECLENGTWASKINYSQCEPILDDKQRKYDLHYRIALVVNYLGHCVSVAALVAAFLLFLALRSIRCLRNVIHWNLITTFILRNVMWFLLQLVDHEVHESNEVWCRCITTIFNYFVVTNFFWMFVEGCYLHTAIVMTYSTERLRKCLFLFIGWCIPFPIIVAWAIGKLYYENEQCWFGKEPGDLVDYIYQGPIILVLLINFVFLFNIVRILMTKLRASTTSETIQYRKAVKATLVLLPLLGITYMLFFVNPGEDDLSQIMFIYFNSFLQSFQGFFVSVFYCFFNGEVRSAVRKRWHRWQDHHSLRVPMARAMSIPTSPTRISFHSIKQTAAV
T4 sequence (P24387 whole entry): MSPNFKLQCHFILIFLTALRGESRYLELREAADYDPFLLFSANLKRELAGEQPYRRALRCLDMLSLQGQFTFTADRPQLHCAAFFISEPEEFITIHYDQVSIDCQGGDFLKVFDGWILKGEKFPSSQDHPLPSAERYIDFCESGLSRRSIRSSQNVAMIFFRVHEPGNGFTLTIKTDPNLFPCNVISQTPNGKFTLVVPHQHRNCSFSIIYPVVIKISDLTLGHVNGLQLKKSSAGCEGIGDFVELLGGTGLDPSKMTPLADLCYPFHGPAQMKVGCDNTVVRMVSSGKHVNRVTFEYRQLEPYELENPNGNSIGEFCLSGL
The experiment in a line: activators of CRF receptor 2 with binding protein – uHTS hits, confirmation (AID 602473). The conditions noted are these: read-out: EC50_Mean. In kind it is functional.

For data set [8], the system named is Streptococcus sp. 'group A'. As to the kind of experiment: growth inhibition of control SK(-) GAS strain, dose response, counter-screen for streptokinase expression inhibitor project, luminescence, kanamycin, BacTiterGlo, confirmation (AID 1900). Format: functional, organism-based. In general terms: The purpose of a counterscreen is to sort out artefacts and off-target activity.

Data set [9] has as its system Streptococcus. As to the kind of experiment: Group A Streptococcus viability loss, dose response, counter-screen for streptokinase expression inhibitor project, luminescence, BacTiterGlo (AID 1915).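 Further: potency for reduction of bacterial viability or growth.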 Format: functional, organism-based.
The subject of data set [10] is INS1. As to the kind of experiment: beta cell apoptosis inhibitors, cytokine rescue, dose response, luminescence, retest (AID 449756).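 Further: cell death triggered by IL-1 beta plus TNF-alpha plus IFN-gamma mixture; protective hits raise ATP signal compared with cytokine alone wells.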 In kind it is functional, cell-based. The conditions noted are these: Rattus norvegicus.
The target of data set [11] is Cytochrome P450 2C9 (Homo sapiens, UniProt P11712).
Data set [12] in a line: microbe, parasite or virus in culture. Format: functional. The note with it: Mycobacterium tuberculosis.
Data set [13] can be described thus: Luminescence Cell-Based Dose Retest to Confirm Inhibitors of Cancer Stem Cells. [Related pubchem assays (depositor defined):AID2717, AID2721]. Format: functional. The note with it: Homo sapiens.

Usually AC50 stands for the concentration at which the activity in the assay is half-maximal.

Active and inactive are the calls of the source.

Sequence of Cytochrome P450 2C19 (P33261 whole entry): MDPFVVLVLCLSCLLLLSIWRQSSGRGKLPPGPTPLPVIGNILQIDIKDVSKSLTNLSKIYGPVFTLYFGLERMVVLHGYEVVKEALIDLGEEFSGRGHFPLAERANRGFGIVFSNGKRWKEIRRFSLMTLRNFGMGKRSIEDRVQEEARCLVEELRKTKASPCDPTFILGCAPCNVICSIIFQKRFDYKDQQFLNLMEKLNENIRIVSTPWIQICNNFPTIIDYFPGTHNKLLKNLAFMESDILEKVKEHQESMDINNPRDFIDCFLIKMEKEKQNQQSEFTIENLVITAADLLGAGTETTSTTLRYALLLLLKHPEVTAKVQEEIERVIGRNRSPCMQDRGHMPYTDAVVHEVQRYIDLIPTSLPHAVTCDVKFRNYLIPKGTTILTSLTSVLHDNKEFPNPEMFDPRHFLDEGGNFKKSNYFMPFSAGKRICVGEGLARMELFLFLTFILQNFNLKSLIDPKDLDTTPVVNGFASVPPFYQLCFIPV
Sequence of Cytochrome P450 2C9 (P11712 whole entry): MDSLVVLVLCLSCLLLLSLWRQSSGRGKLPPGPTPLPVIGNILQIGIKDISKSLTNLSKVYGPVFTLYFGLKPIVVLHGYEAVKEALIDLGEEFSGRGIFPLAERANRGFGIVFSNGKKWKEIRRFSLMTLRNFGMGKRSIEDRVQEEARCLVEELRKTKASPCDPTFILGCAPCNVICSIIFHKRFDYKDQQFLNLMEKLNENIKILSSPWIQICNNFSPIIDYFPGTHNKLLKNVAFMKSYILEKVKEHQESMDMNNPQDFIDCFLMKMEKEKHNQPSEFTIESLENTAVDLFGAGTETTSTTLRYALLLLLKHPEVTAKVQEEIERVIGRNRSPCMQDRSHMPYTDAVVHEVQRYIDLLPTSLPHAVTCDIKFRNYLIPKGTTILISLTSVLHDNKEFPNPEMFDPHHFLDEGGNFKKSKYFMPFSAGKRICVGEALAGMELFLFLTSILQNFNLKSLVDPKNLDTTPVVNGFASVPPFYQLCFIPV
Sequence of FAD-linked sulfhydryl oxidase ALR (P55789 whole entry): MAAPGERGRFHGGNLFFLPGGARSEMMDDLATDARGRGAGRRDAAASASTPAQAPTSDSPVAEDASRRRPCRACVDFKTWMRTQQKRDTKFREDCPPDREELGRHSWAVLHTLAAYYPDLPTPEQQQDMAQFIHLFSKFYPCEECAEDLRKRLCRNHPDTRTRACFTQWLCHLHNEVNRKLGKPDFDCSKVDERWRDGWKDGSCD
Sequence of Cytochrome P450 2D6 (P10635 whole entry): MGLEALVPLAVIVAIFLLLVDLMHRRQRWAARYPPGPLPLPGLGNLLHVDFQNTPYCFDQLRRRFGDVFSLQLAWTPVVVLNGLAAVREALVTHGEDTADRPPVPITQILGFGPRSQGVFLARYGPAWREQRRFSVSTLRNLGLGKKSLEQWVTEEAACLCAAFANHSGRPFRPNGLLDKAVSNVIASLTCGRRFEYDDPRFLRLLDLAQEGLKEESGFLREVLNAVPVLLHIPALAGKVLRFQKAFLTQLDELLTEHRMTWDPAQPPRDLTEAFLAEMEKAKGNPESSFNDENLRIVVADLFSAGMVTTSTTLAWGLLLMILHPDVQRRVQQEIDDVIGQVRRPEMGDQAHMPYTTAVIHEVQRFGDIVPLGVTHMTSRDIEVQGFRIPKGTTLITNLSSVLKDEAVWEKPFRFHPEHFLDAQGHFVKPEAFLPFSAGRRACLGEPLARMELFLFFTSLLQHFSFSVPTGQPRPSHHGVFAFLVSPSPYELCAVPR

Take `Nc1[nH]c(N=NC(=O)c2ccc(F)cc2)c2ccccc12`: the concentration at half-maximal activity (AC50) in data set [1] was 0.24 µM (active).

`COc1ccc(-c2nc3cnc(N4CCNCC4)nc3n(Cc3cccc(OC)c3)c2=O)cc1`: the half-maximal activity concentration (AC50) in data set [2] (read-out: AC50) is 39.8 µM (inconclusive); in [3], 39.8 µM (inconclusive); in data set [4] it was 31.6 µM (inconclusive).

`COc1ccccc1NC(=O)/C(C#N)=C/c1cc([N+](=O)[O-])ccc1N1CCCC1`: the values for the EC50 in data set [5], in [6] and in data set [7] were 7.27 µM (inconclusive), 4.59 µM (inconclusive) and 7.66 µM (active), respectively.

As for `C[C@@H]1Cc2c(O)c(O)cc(O)c2C(=O)O1`, the EC50 in data set [5] is 104 µM (active); in [6] it was 13.5 µM (active).

On to `Cc1cc(C)n(-c2nc(NC(C)(C)C)nc(NC(C)(C)C)n2)n1`, for which the EC50 in [8] was 0.694 µM (active); in [9] it was 1.72 µM (active). Moreover, the AC50 entry in data set [2] was “inconclusive”; in data set [10], 3.14 µM (active); in data set [11], 8.91 µM (inconclusive).

As to `CCN(CCNC(=O)C1CC(=O)N(CCc2ccccc2)C1)c1ccccc1` (stereo not drawn), in data set [1], the AC50 was 0.288 µM (active).

`Cc1ccc(S(=O)(=O)N2CCC(=O)N(C(COCc3ccc(C(F)(F)F)cc3)Cc3ccccc3)CC2)cc1` (stereo not drawn): the EC50 in data set [7] was 4.81 µM (active).

Turning to `CC(NC(=O)CCl)c1ccc(Cl)c(Cl)c1` (stereo not drawn), the CC50 in data set [12] is 8.91 µM (active).

For `COC(=O)c1ccc(-n2c(CCC(=O)O)ccc2-c2ccc(C)cc2)cc1`, the EC50 in [5] and in [6] was > 300 µM (not active) throughout.

As for `O=C(CCl)Nc1cccn2ncnc12`, in [12], the CC50 is 32.6 µM (active).

Regarding `CC1=C/C(=C(/c2ccc(O)c(C)c2)c2ccccc2C(=O)O)C=CC1=O`, the AC50 in [4] was 3.16 µM (inconclusive).

With `CNCC[C@H](Oc1ccccc1C)c1ccccc1`, the AC50 in data set [4] is 15.8 µM (inconclusive).

Regarding `COCCn1c(=O)c(C)nc2cnc(Oc3ccc(OC)cc3)nc21`, the values for the AC50 in data set [2] (read-out: AC50) and in data set [11] were 39.8 µM (inconclusive) and 20 µM (inconclusive), respectively.

For the compound `O=C1CS[C@@H](c2ccccc2Cl)c2cc(Cl)ccc2N1`, in data set [4], the AC50 was 39.8 µM (inconclusive).

As for `O=C(CSc1nc(O)c2c(C(F)(F)F)cc(-c3cccs3)nc2n1)Nc1c(F)c(F)c(F)c(F)c1F`, the AC50 in data set [13] was 1.04 µM (active).

In the case of `COc1cc(OC)cc(C(=O)N2CCCC(Nc3ccc(F)cc3)C2)c1` (stereo not drawn), the AC50 in data set [1] is 1.97 µM (active).

On to `Cc1ccc(S(=O)(=O)Nc2ccccc2F)cc1C(=O)NNC(=O)c1ccccc1O`, for which the EC50 in data set [5] was 149 µM (inconclusive); in [6] it was 1.75 µM (inconclusive).

For the compound `CC1=NN(c2nc(-c3ccc(Cl)cc3)cs2)C(=O)C1`, the AC50 in data set [13] was 5.37 µM (active).

As for `C[C@@H](C(=O)NCc1ccc(S(C)(=O)=O)cc1)[C@H]1C[C@]1(C)[C@H](NC(=O)OCc1ccccc1)c1ccccc1`, in data set [4], the AC50 is 12.6 µM (inconclusive).

Consider `COc1c(Cl)cc(Cl)cc1CNCCNCCO`, for which the values for the AC50 in [4] and in data set [11] were 28.2 µM (inconclusive) and 22.4 µM (inconclusive), respectively.

As to `Sc1nc(-c2ccccc2)c[nH]1`, the half-maximal activity concentration (AC50) in data set [1] was 0.904 µM (active).

Regarding `Cc1noc(C)c1S(=O)(=O)NCCN1CCN(c2ccccc2)CC1`, the AC50 in data set [1] was 3.33 µM (active).

Take `O=c1c(Cc2ccccc2)c(O)nc2n1CCS2`: the AC50 in [2] (read-out: AC50) and in data set [11] was 14.1 µM (inconclusive) in each case.

Regarding `Nc1nnc(C(=O)c2ccccc2N)s1`, the EC50 in data set [5] was 14.7 µM (active); in [6] it was 3.86 µM (active).

Consider `Cc1c(NC(=O)c2ccc([N+](=O)[O-])o2)cccc1-c1nc2ncccc2o1`, for which the CC50 in data set [12] was > 40 µM (active). In addition, the AC50 in [13] was 4 µM (active).

For `CCc1ccccc1N1C(=O)c2cccc3c(N4CCOCC4)c([N+](=O)[O-])cc(c23)C1=O`, the AC50 in data set [4] is 10 µM (inconclusive).

Turning to `CCn1cc(C=C2C(=O)N(C)C(=O)N(C)C2=O)c2ccccc21`, the EC50 in [5] was > 300 µM (not active); in data set [6] it was > 300 µM (inconclusive).

As for `C=CCN1C(=O)NC(=O)/C(=C/c2cc3c4c(c2)CCCN4CCC3)C1=O`, in data set [1], the AC50 was 2.31 µM (active).

With `CNc1nc(NCCOC23CC4CC(CC(C4)C2)C3)nc(OCC(F)(F)F)n1`, the AC50 in data set [4] was 12.6 µM (inconclusive); in [11], 15.8 µM (inconclusive).

Regarding `O=[N+]([O-])c1cccc(-c2nnc(S)n2-c2ccc(Br)cc2)c1`, the concentration at half-maximal activity (AC50) in data set [1] was 3.63 µM (active).

With `Cc1cc(=O)oc(C)c1C(=O)Nc1ccc2ncccc2c1`, in data set [7], the EC50 was 24.2 µM (active).

Consider `O=C(CSc1nc2ccccc2[nH]1)NCCN1CCCCC1`, for which the AC50 in data set [2] (read-out: AC50) is 22.4 µM (inconclusive); in data set [3] it was 1.78 µM (inconclusive); in data set [4], 0.316 µM (inconclusive).

In the case of `CCCn1c(NCc2ccc3c(c2)OCO3)nc2ccccc21`, the AC50 in data set [1] is 18.9 µM (active).

For the compound `Cc1ccc(/C=C2\C(=O)Nc3ccccc32)o1`, the CC50 in data set [12] was > 40 µM (active).

On to `COc1ccc(NC(=O)N2CCC3(CC2)CCN(C(=O)c2cnccn2)CC3)cc1`, for which the AC50 in data set [4] was 10 µM (inconclusive); in [11], 31.6 µM (inconclusive).

On to `Cc1cc(C)cc(N(C(=O)C2CCCC2)C2C=CS(=O)(=O)C2)c1` (stereo not drawn), for which the AC50 in data set [2] (read-out: AC50) was 17.8 µM (inconclusive); in data set [11], 35.5 µM (inconclusive).

For `CN(C)c1ccc2c3c(ccc(N(C)C)c13)C(=O)OC2`, the concentration at half-maximal activity (AC50) in data set [1] is 8.4 µM (active).

For `CCOc1nn(-c2ccc(Cl)cc2)c(O)c1/C=N/c1ccc(O)cc1`, the AC50 in data set [4] and in [11] was 3.55 µM (inconclusive) in each case.

With `COc1ccccc1C1C(C(C)=O)=C(C)N=c2s/c(=C\c3cc(OC)c(OC)c(OC)c3)c(=O)n21` (stereo not drawn), the EC50 in data set [5] and in data set [6] was > 300 µM (not active) throughout.
